Laboratory results taken from patent US20090136578A1, “Pharmaceutical Composition Comprising Perindopril or Its Salts” (LEK Pharmaceutical d.d., priority 2005, published 2009).

Tests used:
Format in all cases: physicochemical
[1] = Stress stability of tablets of Example 6, HPLC degradation products
Experimental: (§1) For the comparative tests, samples of perindopril erbumine with different particle size were mixed with some common pharmaceutically acceptable excipients in binary or ternary mixtures. Pharmaceutical compositions, particularly tablets, with perindopril erbumine having different particle size were prepared as well. Binary and ternary mixtures and tablets were exposed to the stress condition, e.g. 60° C. for 14 days or 40° C./75% relative humidity for 1 month.
Samples of perindopril erbumine having large or small particles were mixed with selected pharmaceutical excipients in stated ratio:
Mixture was homogenized and pressed into the tablets. The amount of the perindopril erbumine in the tablets was defined by the mass of the tablet. Tablet could contain 2, 4 or 8 mg of perindopril erbumine.
Tablets were exposed to the stress condition of 60° C. for 14 days and 40° C./75% relative humidity for 1 month.

[2] = Stress stability of binary mixture perindopril erbumine:anhydrous lactose 1:2, HPLC degradation products; conditions: binary mixture with anhydrous lactose 1:2
Experimental: as §1, with “month. Degradation products of perindopril were determined using HPLC method as described in European Pharmacopea 5.0 (January 2005, monograph for Perindopril tert-butylamine—pages 2210-2212).” for “month.”
(§2) Samples of perindopril erbumine having large or small particles were mixed with anhydrous lactose into the binary mixtures having a ratio perindopril erbumine:anhydrous lactose=1:2. Binary mixtures were closed into vials and exposed to the stress condition of 60° C. for 14 days. Degradation products (impurities B and F) of perindopril were determined using HPLC method as described in European Pharmacopea 5.0 (p. 2210-2212).

[3] = Stress stability of ternary mixture perindopril erbumine:anhydrous lactose:Syloid 2:10:1, HPLC degradation products; conditions: ternary mixture with anhydrous lactose and Syloid 2:10:1
Experimental: as §1
(§3) Samples of perindopril erbumine having large or small particles were mixed with anhydrous lactose and micronized silicon dioxide (Syloid) into the ternary mixtures having ratio perindopril erbumine:anhydrous lactose:Syloid=2:10:1. Ternary mixtures were exposed to the stress condition of 40° C./75% relative humidity for 1 month.

[4] = Stress stability of ternary mixture perindopril erbumine:Avicel:Syloid 2:10:1, HPLC degradation products; conditions: ternary mixture with Avicel and Syloid 2:10:1
Experimental: as §1
as §3, with “microcrystalline cellulose (Avicel)” for “anhydrous lactose”, “erbumine:Avicel:Syloid=2:10:1.” for “erbumine:anhydrous lactose:Syloid=2:10:1.”

[5] = Stress stability of binary mixture perindopril erbumine:Avicel 1:2, HPLC degradation products; conditions: binary mixture with Avicel 1:2
Experimental: as §1, with “month. Degradation products of perindopril were determined using HPLC method as described in European Pharmacopea 5.0 (January 2005, monograph for Perindopril tert-butylamine—pages 2210-2212).” for “month.”
as §2, with “microcrystalline cellulose (Avicel)” for “anhydrous lactose”, “erbumine:Avicel=1:2.” for “erbumine:anhydrous lactose=1:2.”

[6] = Comparative stress tests of perindopril erbumine of different particle size with excipients; conditions: in comparison to perindopril erbumine having small particles; regardless of excipients or testing conditions
Experimental: During the development of the stable pharmaceutical composition of perindopril erbumine comparative tests were performed to investigate effects of various pharmaceutically acceptable excipients e.g. fillers, disintegrants and glidants, and different particle size of perindopril erbumine on the stability of perindopril erbumine.
as §1

[7] = Stress stability of binary mixture perindopril erbumine:Aerosil 15:1, HPLC degradation products; conditions: binary mixture with Aerosil 15:1
Experimental: as §1
Samples of perindopril erbumine having large or small particles were mixed with colloidal anhydrous silicon dioxide (Aerosil) into the binary mixtures having a ratio perindopril erbumine:Aerosil=15:1. Binary mixtures were closed into vials and exposed to the stress condition of 60° C. for 14 days.

Row | impurity B ([1]; 40° C./75% RH, 1 month) [%] | impurity F ([1]; 40° C./75% RH, 1 month) [%] | sum of impurities ([1]; 40° C./75% RH, 1 month) [%] | impurity B ([1]; 60° C., 14 days) [%] | impurity F ([1]; 60° C., 14 days) [%] | sum of impurities ([1]; 60° C., 14 days) [%] | impurity B ([1]; beginning) [%] | impurity F ([1]; beginning) [%] | sum of impurities ([1]; beginning) [%] | impurity B ([2]; 60° C., 14 days) [%] | impurity F ([2]; 60° C., 14 days) [%] | sum of impurities ([2]; 60° C., 14 days) [%] | impurity B ([2]; beginning) [%] | impurity F ([2]; beginning) [%] | sum of impurities ([2]; beginning) [%] | impurity B ([3]; 40° C./75% RH, 1 month) [%] | impurity F ([3]; 40° C./75% RH, 1 month) [%] | sum of impurities ([3]; 40° C./75% RH, 1 month) [%] | impurity B ([3]; beginning) [%] | impurity F ([3]; beginning) [%] | Compound | further results
1 | 0.13 | 0.28 | 0.41 | 0.56 | 0.63 | 1.40 | <0.05 | 0.07 | 0.07 | <0.05 | 0.13 | 0.13 | <0.05 | <0.05 | <0.05 | 1.09 | 0.70 | 1.92 | <0.05 | <0.05 | CCC[C@H](N[C@@H](C)C(=O)N1[C@H](C(=O)O)C[C@@H]2CCCC[C@@H]21)C(=O)OCC [perindopril erbumine - large particles, perindopril erbumine] | sum of impurities ([3]; beginning): 0.10%; impurity B ([4]; 40° C./75% RH, 1 month): 0.05%; impurity F ([4]; 40° C./75% RH, 1 month): 0.18%; sum of impurities ([4]; 40° C./75% RH, 1 month): 0.29%; impurity B ([4]; beginning): <0.05%; impurity F ([4]; beginning): <0.05%; sum of impurities ([4]; beginning): 0.11%; impurity B ([5]; 60° C., 14 days): <0.05%; impurity F ([5]; 60° C., 14 days): 0.07%; sum of impurities ([5]; 60° C., 14 days): 0.07%; impurity B ([5]; beginning): <0.05%; impurity F ([5]; beginning): <0.05%; sum of impurities ([5]; beginning): <0.05%; degradation of perindopril erbumine [6]: smaller; impurity B ([7]; 60° C., 14 days): <0.05%; impurity F ([7]; 60° C., 14 days): 0.08%; sum of impurities ([7]; 60° C., 14 days): 0.08%; impurity B ([7]; beginning): <0.05%; impurity F ([7]; beginning): <0.05%; sum of impurities ([7]; beginning): <0.05%
2 | 0.09 | 0.51 | 0.65 | 0.27 | 0.96 | 1.79 | <0.05 | <0.05 | 0.05 | <0.05 | 0.77 | 0.88 | <0.05 | <0.05 | <0.05 | 1.24 | 1.35 | 2.75 | <0.05 | <0.05 | CCC[C@H](N[C@@H](C)C(=O)N1[C@H](C(=O)O)C[C@@H]2CCCC[C@@H]21)C(=O)OCC [perindopril erbumine - small particles, perindopril erbumine] | sum of impurities ([3]; beginning): 0.10%; impurity B ([4]; 40° C./75% RH, 1 month): 0.14%; impurity F ([4]; 40° C./75% RH, 1 month): 0.17%; sum of impurities ([4]; 40° C./75% RH, 1 month): 0.36%; impurity B ([4]; beginning): <0.05%; impurity F ([4]; beginning): <0.05%; sum of impurities ([4]; beginning): 0.11%; impurity B ([5]; 60° C., 14 days): <0.05%; impurity F ([5]; 60° C., 14 days): 0.74%; sum of impurities ([5]; 60° C., 14 days): 0.81%; impurity B ([5]; beginning): <0.05%; impurity F ([5]; beginning): <0.05%; sum of impurities ([5]; beginning): <0.05%; impurity B ([7]; 60° C., 14 days): <0.05%; impurity F ([7]; 60° C., 14 days): 0.80%; sum of impurities ([7]; 60° C., 14 days): 0.80%; impurity B ([7]; beginning): <0.05%; impurity F ([7]; beginning): <0.05%; sum of impurities ([7]; beginning): <0.05%
